According to publication PMC10077203, “Structure modification, antialgal, antiplasmodial, and toxic evaluations of a series of new marine-derived 14-membered resorcylic acid lactone derivatives” (Marine Life Science & Technology, 2021):
≈ marks a conversion by molar mass, not a printed value.

What was measured:
C. vulgaris = test: Diatom growth inhibition assay (antialgal activity); assay type: cell-based, Chlorella vulgaris; details: Chlorella vulgaris; 48 h, chlorophyll a of attached microalgae; read-out: EC50 C. vulgaris
Procedure: (§1) The antialgal activity against the microalgae P. tricornutum Bohlin, C. vulgaris, C. socialis, N. laevissima, and N. exigua was evaluated by the method of Ortlepp et al. ([2008]). Briefly, the microalgae were grown in sterilized BG11 medium under light intensity of 2500 lx and 12 h: 12 h light: dark cycle at temperature of 20 ℃. The microalgae were grown to reach the logarithmic phase (approximately 5 × 10^5 cells/ml), which were used for microalgae growth inhibition assay. The compounds 1–71 were first dissolved in a small amount of DMSO and then diluted with 0.22 μm of filtered seawater (FSW) to achieve a range of concentrations from 0.625 to 50 μg/ml. Ten microliters of the compound solution was added to multiwell Petri dishes containing a 1-mL suspension of the microalgae (approximately 12 × 10^4 cells/ml). FSW with DMSO was used as a negative control, and solutions of SeaNine 211 in seawater were used as positive controls. After the plates were incubated for 48 h (16 ± 1 ℃) under continuous light, the FSW with non-attached microalgae was removed. The amount of chlorophyll a in attached microalgae was determined with a spectrophotometer (Beckman, model DU650, USA). Then the EC50 (inhibits 50% of settlement of cyprids in comparison with the control) was calculated using the Probit software program.

P. tricornutum Bohlin = test: as above; assay type: cell-based, Phaeodactylum tricornutum Bohlin; details: Phaeodactylum tricornutum, 48 h, chlorophyll a of attached microalgae, read-out: EC50 P. tricornutum
Procedure: as §1

N. exigua = test: as above; assay type: cell-based, Navicula exigua; details: 48 h, chlorophyll a of attached microalgae, read-out: EC50 N. exigua
Procedure: as §1

zebrafish embryos = test: Zebrafish embryo toxicity test; assay type: in vivo; details: for survival of zebrafish embryos: 100 μmol/L, 52 h
Procedure: Toxicity assays were carried out using the method of Wang et al. ([2011]). Briefly, the normal embryos were selected and transferred into a 24-well plate. The embryos at 1 h postfertilization (hpf) were exposed by immersion in E3 embryo medium containing the derivative in a 1% (v/v) DMSO final solvent concentration in a 24-well plate. The developmental phenotypes of the experimental status of the embryos were observed every 24 h for 72 h and were photographed with a charge-coupled device (CCD) camera.

N. laevissima = test: Diatom growth inhibition assay (antialgal activity); assay type: cell-based, Navicula laevissima; details: Sellaphora laevissima, 48 h, chlorophyll a of attached microalgae, read-out: EC50 N. laevissima
Procedure: as §1

C. socialis = test: as above; assay type: cell-based, Chaetoceros socialis; details: Chaetoceros socialis, 48 h, chlorophyll a of attached microalgae, read-out: EC50 C. socialis
Procedure: as §1

[1] = system: P. tricornutum Bohlin, C. vulgaris, C. socialis, N. laevissima, and N. exigua; test: Diatom growth inhibition assay, whole panel; assay type: cell-based; details: Chlorella vulgaris; selective and moderate activities; read-out: EC50 antialgal, range over compounds and algae
Procedure: as §1

Staphylococcus aureus = test: Antimicrobial assay (serial dilution, MIC); assay type: cell-based; details: 37 °C, 24 h, read-out: minimum inhibitory concentration (MIC) S. aureus
Procedure: The antimicrobial activities were carried out by a serial dilution technique using 96-well microtiter plates (Pierce et al. [2008]). The derivatives were dissolved in DMSO to obtain a stock solution. Microbial species were cultured overnight at 37 °C in LB broth and diluted to 10^6 cfu/ml when used. LB broth was used as a blank control, and DMSO was used as a negative control, while ciprofloxacin was used as a positive control. The plates were incubated at 37 °C for 24 h.

[2] = In vitro cytotoxicity (CC50); assay type: cell-based; details: human, HUVEC cells
Text: Toxicity is a major concern of drug discovery and development, and the selectivity index (SI) is used as the evaluation parameter of drug potential of the test samples by comparing the toxicity on a human cell line (CC50) and the selective inhibitory effect on P. falciparum (IC50) calculated here as CC50/IC50. We decided to evaluate in vitro cytotoxicity of the active derivatives 38, 39, 50, 52, 65, 67, 70, and 71 by determining their 50% cytotoxic concentrations. The results are presented in Table 3, presenting only those CC50 values > 100 μmol/L, reaching selectivity indexes > 10. The cytotoxic concentration at 150 μmol/L was not be determined because of a lack of solubility of the tested molecule in the culture medium. Moreover, the toxicity of these derivatives was also evaluated against two other cell lines: hepatocellular liver carcinoma cell line (Hep G2) and cervical carcinoma (HeLa), finding CC50 values > 100 μmol/L.

[3] = system: chloroquine sensitive HB3 strain of P. falciparum; test: In vitro antiplasmodial assay (Pico-Green growth inhibition); assay type: cell-based, Plasmodium falciparum; details: for P. falciparum SI, Selectivity Index (CC50/IC50): CC50 HUVEC / IC50 P. falciparum; for IC50: Plasmodium falciparum, Erythrocyte, HB3 strain in human erythrocytes, read-out: P. falciparum IC50
Procedure: In vitro antiplasmodial activity was performed by culturing human erythrocytes and infecting them with P. falciparum, as reported by Trager and Jensen ([1976]). Briefly, the chloroquine sensitive HB3 strain of P. falciparum-infected O + erythrocytes was cultured in RPMI 1640 medium supplemented with 10% human serum (from O + blood) at a hematocrit of 2% erythrocytes at 37 °C with a gas mixture containing 90% N2, 5% CO2, and 5% O2. Parasites were synchronized with 5% D-sorbitol (Lambros and Vanderberg [1979]). P. falciparum growth inhibition bioassays were performed with the procedure as described by Corbett et al. ([2004]), which used Pico-Green, a double stranded-DNA fluorescent dye to test the effect of compounds.

[4] = system: larval settlement of the barnacle Balanus Amphitrite; parameters: method as in Shao et al. [2011]; details: ref Shao et al. [2011]; cited from earlier work

Question: For `COc1cc2c(c(OCc3ccc(C(C)(C)C)cc3)c1)C(=O)OC(C)CC=CC(O)C(O)C(O)CC=C2` (centres unmarked) [Compound 26], which EC50 (C. vulgaris) is on record?
Answer: > 10 µM

Question: And the EC50 (P. tricornutum Bohlin)?
Answer: 25.7 µM

Question: And the EC50 (N. exigua)?
Answer: > 10 µM

Question: What about the “death of zebrafish embryos” value (zebrafish embryos; 50 μmol/L, after 24 h) of the same compound?
Answer: all embryos died

Question: And the EC50 (N. laevissima)?
Answer: > 10 µM

Question: And the EC50 (C. socialis)?
Answer: 18.4 µM

Question: What about the EC50 [1] of the same compound?
Answer: 11 to 32.5 µM

Question: What about the MIC (Staphylococcus aureus) of the same compound?
Answer: 25 µM (≈ 12.8 µg/mL)

Question: With `COc1cc2c(c(OCc3ccc(-c4ccccc4C#N)cc3)c1)C(=O)OC(C)CC=CC1OC(C)(C)OC1C(O)CC=C2` (centres unmarked) [Compound 38] as the compound, how does the CC50 [2] read?
Answer: > 100 µM

Question: What about the “survival of zebrafish embryos” value (zebrafish embryos) of the same compound?
Answer: All embryos survived

Question: What about the “P. falciparum SI, Selectivity Index (CC50/IC50)” value [3] of the same compound?
Answer: > 12

Question: And the IC50 [3]?
Answer: 8.06 µM

Question: For `COC(=O)c1ccccc1-c1ccc(COc2cc(OC)cc3c2C(=O)OC(C)CC=CC2OC(C)(C)OC2C(O)CC=C3)cc1` (centres unmarked) [Compound 39], which CC50 [2] is on record?
Answer: > 100 µM

Question: What about the “survival of zebrafish embryos” value (zebrafish embryos) of the same compound?
Answer: All embryos survived

Question: What about the “P. falciparum SI, Selectivity Index (CC50/IC50)” value [3] of the same compound?
Answer: > 14

Question: What about the IC50 [3] of the same compound?
Answer: 6.69 µM

Question: With `COc1cc(O)c2c(c1)/C=C/C[C@H](O)[C@@H]1OC(C)(C)O[C@H]1C=CC[C@H](C)OC2=O` [cochliomycin A] as the compound, how does the “concentration of significant antifouling activity against larval settlement” value [4] read?
Answer: 1.2 µg/mL
